Measurements: ChEMBL document CHEMBL1770127, “2-(2-Aminothiazol-4-yl)pyrrolidine-based tartrate diamides as potent, selective and orally bioavailable TACE inhibitors” (Bioorg Med Chem Lett, 2011)

Legend:
[1] = target: T1, Disintegrin and metalloproteinase domain-containing protein 17 (Homo sapiens, UniProt P78536); assay: Inhibition of TACE by cell based assay
Interstitial collagenase = target: T2, Interstitial collagenase (Homo sapiens, UniProt P03956); assay: Inhibition of MMP1
T2 sequence (P03956 whole entry): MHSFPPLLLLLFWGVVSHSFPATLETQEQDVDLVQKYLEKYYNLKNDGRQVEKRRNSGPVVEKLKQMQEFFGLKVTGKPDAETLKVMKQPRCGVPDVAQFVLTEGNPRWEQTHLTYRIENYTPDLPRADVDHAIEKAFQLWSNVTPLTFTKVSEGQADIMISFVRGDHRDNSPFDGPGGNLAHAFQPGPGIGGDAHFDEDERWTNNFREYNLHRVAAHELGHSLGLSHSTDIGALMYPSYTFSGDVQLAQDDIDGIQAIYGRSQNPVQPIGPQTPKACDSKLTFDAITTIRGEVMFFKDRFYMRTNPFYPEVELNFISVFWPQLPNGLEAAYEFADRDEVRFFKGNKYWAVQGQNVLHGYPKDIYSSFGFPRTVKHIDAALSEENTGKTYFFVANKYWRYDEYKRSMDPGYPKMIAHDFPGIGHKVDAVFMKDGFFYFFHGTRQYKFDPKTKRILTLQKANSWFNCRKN

[2] = Plasma concentration in Sprague-Dawley rat at 10 mg/kg, po measured after 6 hrs by LC/MS/MS analysis; type: ADME, organism-based; set-up: dose 10 mg/kg, route oral
[3] = target: T1, Disintegrin and metalloproteinase domain-containing protein 17; assay: Inhibition of TACE
[4] = AUC in Sprague-Dawley rat at 10 mg/kg, po measured within 6 hrs after post-dosing by LC/MS/MS analysis; type: ADME, organism-based; set-up: time < 6 hr, dose 10 mg/kg, route oral; details: plasma

T1 sequence (P78536 whole entry, the tested form may be a part): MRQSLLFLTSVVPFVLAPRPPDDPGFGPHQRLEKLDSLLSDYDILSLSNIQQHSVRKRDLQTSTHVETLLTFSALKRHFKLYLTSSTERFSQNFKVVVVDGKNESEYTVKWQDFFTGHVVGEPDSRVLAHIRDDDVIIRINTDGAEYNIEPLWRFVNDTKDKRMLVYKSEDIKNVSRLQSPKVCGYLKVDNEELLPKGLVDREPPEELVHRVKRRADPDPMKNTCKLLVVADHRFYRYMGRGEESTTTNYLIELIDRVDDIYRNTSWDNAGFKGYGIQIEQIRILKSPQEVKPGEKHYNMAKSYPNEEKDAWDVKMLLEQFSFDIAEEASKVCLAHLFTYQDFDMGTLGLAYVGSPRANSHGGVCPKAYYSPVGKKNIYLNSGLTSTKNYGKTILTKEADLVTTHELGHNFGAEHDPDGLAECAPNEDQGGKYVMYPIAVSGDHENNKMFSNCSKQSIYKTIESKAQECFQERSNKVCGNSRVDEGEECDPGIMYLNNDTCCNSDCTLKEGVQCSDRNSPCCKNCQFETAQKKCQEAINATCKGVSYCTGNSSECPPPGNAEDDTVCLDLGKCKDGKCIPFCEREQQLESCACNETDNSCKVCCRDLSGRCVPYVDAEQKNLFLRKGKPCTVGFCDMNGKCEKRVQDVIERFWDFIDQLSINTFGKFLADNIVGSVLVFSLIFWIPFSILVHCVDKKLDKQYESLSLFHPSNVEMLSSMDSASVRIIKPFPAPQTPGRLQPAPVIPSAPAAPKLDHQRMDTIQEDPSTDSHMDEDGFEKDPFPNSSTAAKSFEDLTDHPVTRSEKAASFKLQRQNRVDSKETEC

Compound | IC50 [1] [µM] | Ki (Interstitial collagenase) [µM] | concentration at 6 h [2] [µM] | Ki [3] [µM] | AUC at 6 h [4] [nM·h]
CNc1nc([C@H]2CCCN2C(=O)[C@H](O)[C@@H](O)C(=O)N[C@H](C)c2ccc(-n3cccn3)cc2)c(S(C)(=O)=O)s1 | 0.72 |  |  |  | 
C[C@@H](NC(=O)[C@H](O)[C@@H](O)C(=O)N1CCC[C@@H]1c1cccc(Cl)c1)c1ccc(-n2cccn2)cc1 |  | > 100 | 0.096 | 0.0008 | 2950
C[C@@H](NC(=O)[C@H](O)[C@@H](O)C(=O)N1CCC[C@]1(C)c1cccc(Cl)c1)c1ccc(-n2cccn2)cc1 |  |  |  | 0.0004 | 1460
C[C@@H](NC(=O)[C@H](O)[C@@H](O)C(=O)N1CC=C[C@@H]1c1cccc(Cl)c1)c1ccc(-n2cccn2)cc1 |  |  |  | 0.0005 | 461
COc1cc2c(cc1OC)[C@H](c1ccc(Cl)cc1)N(C(=O)[C@H](O)[C@@H](O)C(=O)N[C@H](C)c1ccc(-n3cccn3)cc1)CC2 |  |  |  | 0.0026 | 
COc1cc2c(cc1OC)[C@H](c1ccccc1)CN(C(=O)[C@H](O)[C@@H](O)C(=O)N[C@H](C)c1ccc(-n3cccn3)cc1)CC2 |  |  |  | 0.038 | 
C[C@@H](NC(=O)[C@H](O)[C@@H](O)C(=O)N1CCC[C@@H]1c1cc[nH]n1)c1ccc(-n2cccn2)cc1 |  |  |  | 0.005 | 578
C[C@@H](NC(=O)[C@H](O)[C@@H](O)C(=O)N1CCC[C@@H]1c1ccn(C)n1)c1ccc(-n2cccn2)cc1 |  |  | 0.086 | 0.004 | 2920
C[C@@H](NC(=O)[C@H](O)[C@@H](O)C(=O)N1CCC[C@@H]1c1nccs1)c1ccc(-n2cccn2)cc1 |  |  |  | 0.01 | 
Cc1nc([C@H]2CCCN2C(=O)[C@H](O)[C@@H](O)C(=O)N[C@H](C)c2ccc(-n3cccn3)cc2)cs1 |  |  |  | 0.01 | 
C[C@@H](NC(=O)[C@H](O)[C@@H](O)C(=O)N1CCC[C@@H]1c1csc(N)n1)c1ccc(-n2cccn2)cc1 | 4.29 |  | 0.247 | 0.006 | 2280
CNc1nc([C@H]2CCCN2C(=O)[C@H](O)[C@@H](O)C(=O)N[C@H](C)c2ccc(-n3cccn3)cc2)cs1 | 5.8 |  | 2.54 | 0.007 | 30700
CCNc1nc([C@H]2CCCN2C(=O)[C@H](O)[C@@H](O)C(=O)N[C@H](C)c2ccc(-n3cccn3)cc2)cs1 | 5.11 |  | 5.97 | 0.007 | 52000
CCCNc1nc([C@H]2CCCN2C(=O)[C@H](O)[C@@H](O)C(=O)N[C@H](C)c2ccc(-n3cccn3)cc2)cs1 | 4.48 |  | 5.4 | 0.004 | 48300
CC(C)Nc1nc([C@H]2CCCN2C(=O)[C@H](O)[C@@H](O)C(=O)N[C@H](C)c2ccc(-n3cccn3)cc2)cs1 | 6.68 |  | 12.3 | 0.017 | 115000
C[C@@H](NC(=O)[C@H](O)[C@@H](O)C(=O)N1CCC[C@@H]1c1csc(NC2CCC2)n1)c1ccc(-n2cccn2)cc1 | 2.15 |  | 3.54 | 0.004 | 31400
C[C@@H](NC(=O)[C@H](O)[C@@H](O)C(=O)N1CCC[C@@H]1c1csc(Nc2ccccc2F)n1)c1ccc(-n2cccn2)cc1 | 1.14 |  |  | 0.001 | 130
C[C@@H](NC(=O)[C@H](O)[C@@H](O)C(=O)N1CCC[C@@H]1c1csc(Nc2cccnc2)n1)c1ccc(-n2cccn2)cc1 | 5.55 |  |  | 0.002 | 
C[C@@H](NC(=O)[C@H](O)[C@@H](O)C(=O)N1CCC[C@@H]1c1csc(N(C)C)n1)c1ccc(-n2cccn2)cc1 |  |  |  | 0.065 | 
C[C@@H](NC(=O)[C@H](O)[C@@H](O)C(=O)N1CCC[C@@H]1c1csc(N2CCCCC2)n1)c1ccc(-n2cccn2)cc1 |  |  |  | 0.039 | 1960

Compound | IC50 [1] [µM] | Ki (Interstitial collagenase) [µM] | concentration at 6 h [2] [µM] | Ki [3] [µM] | AUC at 6 h [4] [nM·h]
CNc1nc([C@H]2CCCN2C(=O)[C@H](O)[C@@H](O)C(=O)N[C@H](C)c2ccc(-n3cccn3)cc2)c(C)s1 | 2.22 |  |  | 0.002 | 5440
CNc1nc([C@H]2CCCN2C(=O)[C@H](O)[C@@H](O)C(=O)N[C@H](C)c2ccc(-n3cccn3)cc2)c(C2CC2)s1 | 2.57 |  |  | 0.002 | 11400
CNc1nc([C@H]2CCCN2C(=O)[C@H](O)[C@@H](O)C(=O)N[C@H](C)c2ccc(-n3cccn3)cc2)c(-c2ccc(F)cc2)s1 | 3.24 |  |  | 0.001 | 
CNc1nc([C@H]2CCCN2C(=O)[C@H](O)[C@@H](O)C(=O)N[C@H](C)c2ccc(-n3cccn3)cc2)c(C#N)s1 | 3.04 |  |  | 0.002 | 154
CCNc1nc([C@H]2C[C@@H](C)CN2C(=O)[C@H](O)[C@@H](O)C(=O)N[C@H](C)c2ccc(-n3cccn3)cc2)cs1 | 4.04 |  |  | 0.006 | 5620
CNc1nc([C@H]2CC(F)(F)CN2C(=O)[C@H](O)[C@@H](O)C(=O)N[C@H](C)c2ccc(-n3cccn3)cc2)cs1 | 2.77 |  |  | 0.004 | 1420
CNc1nc([C@H]2C=CCN2C(=O)[C@H](O)[C@@H](O)C(=O)N[C@H](C)c2ccc(-n3cccn3)cc2)cs1 | 1.34 |  |  | 0.0006 | 1810
CNc1nc([C@H]2C[C@H]3C[C@H]3N2C(=O)[C@H](O)[C@@H](O)C(=O)N[C@H](C)c2ccc(-n3cccn3)cc2)cs1 | 0.707 |  |  | 0.001 | 925
CNc1nc([C@H]2C[C@@H]3C[C@@H]3N2C(=O)[C@H](O)[C@@H](O)C(=O)N[C@H](C)c2ccc(-n3cccn3)cc2)cs1 |  |  |  | 0.531 | 
CNc1nc([C@H]2c3cc(F)ccc3CN2C(=O)[C@H](O)[C@@H](O)C(=O)N[C@H](C)c2ccc(-n3cccn3)cc2)cs1 | 0.384 |  |  | 0.016 | 237
CNc1nc([C@H]2c3ccc(F)cc3CN2C(=O)[C@H](O)[C@@H](O)C(=O)N[C@H](C)c2ccc(-n3cccn3)cc2)cs1 | 0.288 |  |  | 0.002 | 
CCNc1nc([C@H]2c3cnc(N)nc3CN2C(=O)[C@H](O)[C@@H](O)C(=O)N[C@H](C)c2ccc(-n3cccn3)cc2)cs1 | 0.257 |  |  | 0.0005 | 
C[C@@H](NC(=O)[C@H](O)[C@@H](O)C(=O)N1CC[C@H](O)C1c1cccc(Cl)c1)c1ccc(-n2cccn2)cc1 (mixture of isomers) |  |  |  | 0.0067 | 4760
C[C@@H](NC(=O)[C@H](O)[C@@H](O)C(=O)N1C[C@H](O)CC1c1cccc(Cl)c1)c1ccc(-n2cccn2)cc1 (mixture of isomers) |  |  |  | 0.0076 | 3910
C[C@@H](NC(=O)[C@H](O)[C@@H](O)C(=O)N1CCCCC1c1cccc(Cl)c1)c1ccc(-n2cccn2)cc1 (mixture of isomers) |  |  |  | 0.087 | 
C[C@@H](NC(=O)[C@H](O)[C@@H](O)C(=O)N1CCCCC1c1ccc(Cl)cc1)c1ccc(-n2cccn2)cc1 (mixture of isomers) |  |  |  | 0.022 | 
C[C@@H](NC(=O)[C@H](O)[C@@H](O)C(=O)N1CCCCC1c1ccccc1)c1ccc(-n2cccn2)cc1 (mixture of isomers) |  |  |  | 0.014 | 
COc1cc2c(cc1OC)C(c1ccccc1)N(C(=O)[C@H](O)[C@@H](O)C(=O)N[C@H](C)c1ccc(-n3cccn3)cc1)CC2 (mixture of isomers) |  |  |  | 0.0009 | 1240
CNc1nc(C2(C)CCCN2C(=O)[C@H](O)[C@@H](O)C(=O)N[C@H](C)c2ccc(-n3cccn3)cc2)cs1 (mixture of isomers) | 13.8 |  |  | 0.009 | 2440
